In PubChem BioAssay AID180 (DTP/NCI, 2004) one finds T/C data, which are given here for 17 molecules.

The subject of the test is BDF1 mice, Adenocarcinoma 755 s.c., tumor weight T/C. The test is described as follows: NCI In Vivo Anticancer Drug Screen. Data for tumor model Adenocarcinoma 755 (subcutaneous) in B6D2F1 (BDF1) mice. The settings on record: endpoint: mean tumor weight, higher = larger tumour. A digest of the protocol: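 Transplantable tumor implanted; mice dosed with compound or vehicle; survival or tumor size recorded; ratio of treated to vehicle control reported.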

[1] abbreviates: dose: 31.25 mg/kg/injection, schedule: Q01DX011 (ip), vehicle: carboxymethylcellulose (CMC).
Where [2] appears, read: dose: 500.0 mg/kg/injection, schedule: Q01DX011 (sc), vehicle: steriod suspending solution.
[3] abbreviates: dose: 20.0 mg/kg/injection, schedule: Q01DX011 (ip), vehicle: methylcellulose (MC).
Where [4] appears, read: dose: 30.0 mg/kg/injection, schedule: Q01DX011 (ip), vehicle: carboxymethylcellulose (CMC).
Where [5] appears, read: dose: 60.0 mg/kg/injection, schedule: Q01DX011 (ip), vehicle: carboxymethylcellulose (CMC).
The mark [6] stands for this setting: dose: 120.0 mg/kg/injection, schedule: Q01DX011 (ip), vehicle: carboxymethylcellulose (CMC).
[7] abbreviates: dose: 225.0 mg/kg/injection, schedule: Q01DX011 (ip), vehicle: methylcellulose (MC).

Values joined by “and” are separate entries in the source; they are usually repeats but may differ in a detail not shown here. Identical values can stand only once.

For orientation: T/C means the result in the treated group divided by that in the control group, in per cent.

As for `c1ccc(CNc2ncnc3[nH]ncc23)cc1`, the T/C (dose: 4.0 mg/kg/injection, schedule: Q01DX011 (ip), vehicle: carboxymethylcellulose (CMC)) was 83 % of control; the T/C (dose: 8.0 mg/kg/injection, schedule: Q01DX011 (ip), vehicle: carboxymethylcellulose (CMC)) is 69 % of control; the T/C (dose: 16.0 mg/kg/injection, schedule: Q01DX011 (ip), vehicle: carboxymethylcellulose (CMC)) is 22 % of control; the T/C under setting [1] is 54 % of control.
For the molecule `CC1(O)CCC2C3CCC4=CC(=O)CCC4C3CCC21C` (centres undefined), the T/C reads like this: (dose: 50.0 mg/kg/injection, schedule: Q01DX011 (sc), vehicle: steriod suspending solution) 93 % of control; (dose: 100.0 mg/kg/injection, schedule: Q01DX011 (sc), vehicle: steriod suspending solution) 76 % of control; (dose: 200.0 mg/kg/injection, schedule: Q01DX011 (sc), vehicle: steriod suspending solution) 59 % of control; (dose: 400.0 mg/kg/injection, schedule: Q01DX011 (sc), vehicle: steriod suspending solution) 51 % of control; under setting [2], 47 % of control; (dose: 600.0 mg/kg/injection, schedule: Q01DX011 (sc), vehicle: steriod suspending solution) 38 % of control.
Take `O=c1[nH]c(=O)n(C2CC(O)C(CO)O2)cc1I` (centres undefined): the T/C under setting [1] is 62 % of control; the T/C (dose: 62.5 mg/kg/injection, schedule: Q01DX011 (ip), vehicle: carboxymethylcellulose (CMC)) was 65 % of control; the T/C (dose: 125.0 mg/kg/injection, schedule: Q01DX011 (ip), vehicle: carboxymethylcellulose (CMC)) is 28 % of control and 51 % of control.
For `NC(=S)n1cccn1`, the T/C was 91 % of control under setting [3]; 85 % of control (dose: 40.0 mg/kg/injection, schedule: Q01DX011 (ip), vehicle: methylcellulose (MC)); 44 % of control (dose: 80.0 mg/kg/injection, schedule: Q01DX011 (ip), vehicle: methylcellulose (MC)); 8 % of control (dose: 160.0 mg/kg/injection, schedule: Q01DX011 (ip), vehicle: methylcellulose (MC)).
In the case of `C(=N\OCCc1ccccc1)/c1cccnc1`, the T/C (dose: 88.0 mg/kg/injection, schedule: Q01DX011 (ip), vehicle: methylcellulose (MC)) was 70 % of control.
With `Nc1cnc(=O)[nH]c1N`, the T/C is 92 % of control under setting [4]; 92 % of control under setting [5]; 122 % of control under setting [6]; 78 % of control (dose: 400.0 mg/kg/injection, schedule: Q01DX011 (ip), vehicle: carboxymethylcellulose (CMC)); 96 % of control (dose: 600.0 mg/kg/injection, schedule: Q01DX011 (ip), vehicle: carboxymethylcellulose (CMC)).
In the case of `O=C(CCBr)N1CN(C(=O)CCBr)CN(C(=O)CCBr)C1`, the T/C by setting is: (dose: 57.0 mg/kg/injection, schedule: Q01DX011 (ip), vehicle: methylcellulose (MC)) 117 % of control; (dose: 113.0 mg/kg/injection, schedule: Q01DX011 (ip), vehicle: methylcellulose (MC)) 97 % of control; under setting [7], 80 % of control.
Take `C[C@]12C=CC(=O)C=C1CC[C@@H]1[C@@H]2CC[C@]2(C)OC(=O)CC[C@@H]12`: the T/C reads like this: (dose: 125.0 mg/kg/injection, schedule: Q01DX011 (sc), vehicle: steriod suspending solution) 80 % of control; (dose: 250.0 mg/kg/injection, schedule: Q01DX011 (sc), vehicle: steriod suspending solution) 77 % of control; under setting [2], 109 % of control; (dose: 1000.0 mg/kg/injection, schedule: Q01DX011 (sc), vehicle: steriod suspending solution) 75 % of control.
With `CC[C@H](c1ccc(O)cc1)[C@@H](CC)c1ccc(O)cc1`, the T/C (dose: 55.0 mg/kg/injection, schedule: Q01DX011 (sc), vehicle: steriod suspending solution) was 44 % of control.
Regarding `C[C@H](N)C(=O)N[C@@H]1[C@H]2C(=C(O)C[C@@H](O)[C@@H]2O)C(=O)O[C@@H]1C`, the T/C by setting is: (dose: 250.0 mg/kg/injection, schedule: Q01DX011 (ip), vehicle: saline) 79 % of control; (dose: 500.0 mg/kg/injection, schedule: Q01DX011 (ip), vehicle: saline) 64 % of control.
For `CCCOP(=S)(N1CC1)N1CC1`, the T/C reads like this: (dose: 3.3 mg/kg/injection, schedule: Q01DX011 (ip), vehicle: methylcellulose (MC)) 74 % of control; (dose: 6.8 mg/kg/injection, schedule: Q01DX011 (ip), vehicle: methylcellulose (MC)) 77 % of control; (dose: 13.5 mg/kg/injection, schedule: Q01DX011 (ip), vehicle: methylcellulose (MC)) 40 % of control.
For the molecule `Nc1[nH]c(=S)ncc1NC=O`, the T/C under setting [4] is 90 % of control; the T/C under setting [6] was 91 % of control; the T/C (dose: 240.0 mg/kg/injection, schedule: Q01DX011 (ip), vehicle: carboxymethylcellulose (CMC)) is 79 % of control.
For `Clc1ccc(CSc2ncnc3c2ncn3C2CCCCO2)cc1` (centres undefined), the T/C is 84 % of control under setting [3] and 31 % of control (dose: 65.0 mg/kg/injection, schedule: Q01DX011 (ip), vehicle: methylcellulose (MC)).
`CCCCCCCCOc1nc(N)nc2n[nH]nc12`: the T/C runs as follows: (dose: 50.0 mg/kg/injection, schedule: Q01DX011 (ip), vehicle: carboxymethylcellulose (CMC)) 112 % of control; (dose: 100.0 mg/kg/injection, schedule: Q01DX011 (ip), vehicle: carboxymethylcellulose (CMC)) 69 % of control; (dose: 200.0 mg/kg/injection, schedule: Q01DX011 (ip), vehicle: carboxymethylcellulose (CMC)) 57 % of control.
As to `Cc1ccc2ccccc2c1CSc1nc(N)nc2c1ncn2CC(C)C`, the T/C runs as follows: (dose: 25.0 mg/kg/injection, schedule: Q01DX011 (ip), vehicle: methylcellulose (MC)) 115 % of control; (dose: 75.0 mg/kg/injection, schedule: Q01DX011 (ip), vehicle: methylcellulose (MC)) 80 % of control; under setting [7], 97 % of control.
For `CS(=O)(=O)OCC(=O)NCCNC(=O)COS(C)(=O)=O`, the T/C (dose: 8.75 mg/kg/injection, schedule: Q01DX011 (ip), vehicle: carboxymethylcellulose (CMC)) was 107 % of control; the T/C (dose: 17.5 mg/kg/injection, schedule: Q01DX011 (ip), vehicle: carboxymethylcellulose (CMC)) was 50 % of control; the T/C (dose: 35.0 mg/kg/injection, schedule: Q01DX011 (ip), vehicle: carboxymethylcellulose (CMC)) was 49 % of control; the T/C (dose: 40.0 mg/kg/injection, schedule: Q01DX011 (ip), vehicle: carboxymethylcellulose (CMC)) is 61 % of control; the T/C under setting [5] was 20 % of control; the T/C (dose: 70.0 mg/kg/injection, schedule: Q01DX011 (ip), vehicle: carboxymethylcellulose (CMC)) was 12 % of control. Further, the T/C (dose: 95.0 mg/kg/injection, schedule: Q01DX011 (ip), vehicle: carboxymethylcellulose (CMC)) was 9 % of control; the T/C (dose: 140.0 mg/kg/injection, schedule: Q01DX011 (ip), vehicle: carboxymethylcellulose (CMC)) was 2 % of control and 6 % of control; the T/C (dose: 210.0 mg/kg/injection, schedule: Q01DX011 (ip), vehicle: carboxymethylcellulose (CMC)) is 7 % of control.
On to `O=C(O)c1cccc2c3c(cc([N+](=O)[O-])c12)CCCC3`, for which the T/C is, setting by setting: (dose: 0.18 mg/kg/injection, schedule: Q01DX011 (ip), vehicle: carboxymethylcellulose (CMC)) 101 % of control; (dose: 0.37 mg/kg/injection, schedule: Q01DX011 (ip), vehicle: carboxymethylcellulose (CMC)) 97 % of control; (dose: 1.5 mg/kg/injection, schedule: Q01DX011 (ip), vehicle: carboxymethylcellulose (CMC)) 85 % of control.
